Measured values as given in EP4813993A1, “COMPOUND, PREPARATION METHOD THEREFOR, AND USE THEREOF” (Sichuan Kelun Pharmaceutical Research Institute Co., Ltd., priority 2023, dated 2025).
Blank lines part the entries; values can stand above or below the compound they belong to.

What was measured:
[1] = system: CFA-induced rat inflammatory pain model; assay: CFA-induced rat inflammatory pain model, Von Frey test; assay type: in vivo, SD rats; settings: SD rats CFA, Mean + SEM, n = 10
Protocol: Experimental Example 9: Pharmacodynamic effect study of compounds in CFA-induced rat inflammatory pain model Experimental animals: SD rats, male, 180-220 g.
(§1) Compound preparation: 5% (final preparation volume) of DMSO was added to dissolve the test compound, and then 10% (final preparation volume) of Cremophor EL and 85% Saline were sequentially added; an appropriate amount of Celecoxib was weighed, 5% (final preparation volume) of DMSO was added to dissolve the test compound, and then 5% (final preparation volume) of HS-15 and 90% Saline were sequentially added.
SD rats were anesthetized with isoflurane. The right hind paw was disinfected, a needle was inserted subcutaneously at the posterior plantar aspect, and 50 µL of complete Freund's adjuvant (CFA, 1 mg/mL) was administered via subcutaneous injection at the midplantar region, with the needle withdrawn slowly while rotating to prevent leakage. After modeling, local redness and swelling of the soles of the feet, difficulty in walking, and lifting of the affected feet were observed.
(§2) 2. Administration and test
(§3) The Von Frey test was performed once before the surgery. On the second day after animal modeling, animals meeting the baseline requirements were selected for enrollment. The animals were randomly divided into 6 groups based on the 50% PWT values, with 10 animals per group. Administration was performed under a double-blind test protocol. The 50% PWT of the animals was measured separately before administration (baseline) and at 0.5 h, 2 h, and 8 h after administration. The model control group was given normal saline, while the compound groups were given the compounds according to the administration doses in the table below.

incision pain model [2] = assay: Incision pain model in SD rats, Von Frey test; assay type: in vivo; settings: SD rats, Mean + SEM, n = 10
Protocol: Experimental Example 7: Pharmacodynamic effect study of compounds in incision pain model in SD rats
Experimental animals: SD rats, male, 180-220 g.
(§4) Compound preparation: 5% (final preparation volume) of DMSO was added to dissolve the test compound, and then 10% (final preparation volume) of Cremophor EL and 85% Saline were sequentially added.
(§5) A plantar incision pain model was established in rats via surgery before the administration and test. Rats were placed in an anesthesia induction chamber and given 3%-4% isoflurane for anesthesia induction. After the anesthesia induction, a breathing mask was applied, and the isoflurane concentration was adjusted to 1%-2% to prevent the rats from suffering pain during the surgery. Each rat was placed in a supine position, and the surgical site was disinfected with alcohol and iodophor. Under sterile conditions, a 0.5 cm longitudinal incision was made on the left hind paw surface, 0.2 cm away from the heel, extending toward the toes. The skin and fascia were incised; the plantar muscle was separated, slightly lifted, and longitudinally incised. The skin was then sutured with 5-0 sutures and disinfected.
as §2
as §3, with “modeling, the test was repeated, and” for “modeling,”, “h, 4 h, 6 h, or” for “h, and”, “after administration, and a single dose was administered.” for “after administration.”

formalin pain model = assay: Rat formalin pain model; assay type: in vivo, SD rats; settings: SD rats, 125 mg/kg p.o. 120 min before 5% formalin, Mean + SD, n = 10
Protocol: Experimental Example 10: Pharmacodynamic effect study of compounds in rat formalin pain model
Experimental animals: SD rats, male, 180-200 g.
as §1, with “Etoricoxib” for “Celecoxib”, “added; the tramadol injection was diluted with normal saline to the desired concentration.” for “added.”
Each group consisted of 10 animals, and 50 µL of a 5% formalin solution was injected using a microsyringe into the right plantar region.
as §2
Based on different pharmacokinetic properties of the drugs, the administration was performed at 0 min, 60 min, and 120 min before modeling. After injection of the formalin, the number of pain responses in the rats was observed. […] Spontaneous pain responses were observed once every 5 min, and the number of pain responses in the rats within 1 min was counted, with a total observation duration of 60 min. Inhibition rate = (number of pain responses in control group - number of pain responses in administration group)/number of pain responses in control group × 100%.
Table 12. Administration information of compounds of the present disclosure in rat formalin model

[3] = system: acetic acid writhing model; assay: Mouse acetic acid writhing model; assay type: in vivo, ICR mice; settings: ICR mice, Dose 50 mg/kg
Protocol: Experimental Example 11: Pharmacodynamic effect study of compounds in mouse acetic acid writhing model
Experimental animals: ICR mice, male, 20-24 g.
as §1, with “Etoricoxib” for “Celecoxib”
• 1. The mice were randomly grouped based on the body weight for model establishment, with 10 animals per group. A 0.8% (v/v) acetic acid solution was intraperitoneally injected at an injection volume of 10 mL/kg. • 2. Administration and test
Administration was performed 60 min before modeling. After the acetic acid solution was injected, the number of writhing responses in mice was observed. […] The number of writhing responses was observed and recorded during two intervals: 0-15 min and 15-30 min, with a total observation duration of 30 min. Inhibition rate = (number of writhing responses in control group - number of writhing responses in administration group)/number of writhing responses in control group × 100%. The model control group was given normal saline, the positive control group 1 was given etoricoxib at 20 mg/kg, the positive control group 2 was given VX-548 at 50 mg/kg, and the remaining groups were given the compounds of the present disclosure according to the administration doses in the table below.

Nav1.8 channels = molecular target: T1, Nav1.8 channels (Homo sapiens, UniProt Q9Y5Y9); assay: Manual patch-clamp, current of stably overexpressed Nav1.8 channels (resting state voltage program); assay type: cell-based
T1 construct: expressed in transfected cells
Outline: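 Whole-cell manual patch clamp on cells stably overexpressing Nav1.8, held at -120 mV and stepped to 0 mV for 50 ms every 20 s (resting-state protocol). Compounds were perfused in ascending concentrations, each for 5 min or until stable; block of peak current was calculated at steady state.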

incision pain model [4] = assay: Incision pain model in ICR mice, Von Frey test; assay type: in vivo; settings: Mean + SEM, n = 10; for PWT 50% value (g) Post-surgery, Preadministration / PWT 50% value (g) Pre-surgery: 50 mg/kg group; for PWT 50% value (g) Post-surgery, Preadministration: baseline before administration; for PWT 50% value (g) Pre-surgery: baseline before surgery; for PWT 50% value (g) 0.5 h / PWT 50% value (g) 2 h / PWT 50% value (g) 4 h: 50 mg/kg single dose; for PWT 50% value (g) 0.5 h: 0.5 h after administration; for PWT 50% value (g) 2 h: 2 h after administration; for PWT 50% value (g) 4 h: 4 h after administration
Protocol: Experimental Example 6: Pharmacodynamic effect study of compounds in incision pain model in ICR mice Experimental animals: ICR mice, male, 28-35 g.
as §4
as §5, with “in mice” for “in rats”, “test. Mice” for “test. Rats”, “the mice” for “the rats”, “Each mouse” for “Each rat”
as §2
as §3, with “modeling, the test was repeated, and” for “modeling,”, “grouped” for “divided into 6 groups”, “4” for “8”, “administration, and a single dose was administered.” for “administration.”

incision pain model [5] = assay: Incision pain model in ICR mice, Von Frey test; assay type: in vivo; settings: 50 mg/kg single dose, Mean + SEM, n = 10

T1 sequence (Q9Y5Y9 whole entry): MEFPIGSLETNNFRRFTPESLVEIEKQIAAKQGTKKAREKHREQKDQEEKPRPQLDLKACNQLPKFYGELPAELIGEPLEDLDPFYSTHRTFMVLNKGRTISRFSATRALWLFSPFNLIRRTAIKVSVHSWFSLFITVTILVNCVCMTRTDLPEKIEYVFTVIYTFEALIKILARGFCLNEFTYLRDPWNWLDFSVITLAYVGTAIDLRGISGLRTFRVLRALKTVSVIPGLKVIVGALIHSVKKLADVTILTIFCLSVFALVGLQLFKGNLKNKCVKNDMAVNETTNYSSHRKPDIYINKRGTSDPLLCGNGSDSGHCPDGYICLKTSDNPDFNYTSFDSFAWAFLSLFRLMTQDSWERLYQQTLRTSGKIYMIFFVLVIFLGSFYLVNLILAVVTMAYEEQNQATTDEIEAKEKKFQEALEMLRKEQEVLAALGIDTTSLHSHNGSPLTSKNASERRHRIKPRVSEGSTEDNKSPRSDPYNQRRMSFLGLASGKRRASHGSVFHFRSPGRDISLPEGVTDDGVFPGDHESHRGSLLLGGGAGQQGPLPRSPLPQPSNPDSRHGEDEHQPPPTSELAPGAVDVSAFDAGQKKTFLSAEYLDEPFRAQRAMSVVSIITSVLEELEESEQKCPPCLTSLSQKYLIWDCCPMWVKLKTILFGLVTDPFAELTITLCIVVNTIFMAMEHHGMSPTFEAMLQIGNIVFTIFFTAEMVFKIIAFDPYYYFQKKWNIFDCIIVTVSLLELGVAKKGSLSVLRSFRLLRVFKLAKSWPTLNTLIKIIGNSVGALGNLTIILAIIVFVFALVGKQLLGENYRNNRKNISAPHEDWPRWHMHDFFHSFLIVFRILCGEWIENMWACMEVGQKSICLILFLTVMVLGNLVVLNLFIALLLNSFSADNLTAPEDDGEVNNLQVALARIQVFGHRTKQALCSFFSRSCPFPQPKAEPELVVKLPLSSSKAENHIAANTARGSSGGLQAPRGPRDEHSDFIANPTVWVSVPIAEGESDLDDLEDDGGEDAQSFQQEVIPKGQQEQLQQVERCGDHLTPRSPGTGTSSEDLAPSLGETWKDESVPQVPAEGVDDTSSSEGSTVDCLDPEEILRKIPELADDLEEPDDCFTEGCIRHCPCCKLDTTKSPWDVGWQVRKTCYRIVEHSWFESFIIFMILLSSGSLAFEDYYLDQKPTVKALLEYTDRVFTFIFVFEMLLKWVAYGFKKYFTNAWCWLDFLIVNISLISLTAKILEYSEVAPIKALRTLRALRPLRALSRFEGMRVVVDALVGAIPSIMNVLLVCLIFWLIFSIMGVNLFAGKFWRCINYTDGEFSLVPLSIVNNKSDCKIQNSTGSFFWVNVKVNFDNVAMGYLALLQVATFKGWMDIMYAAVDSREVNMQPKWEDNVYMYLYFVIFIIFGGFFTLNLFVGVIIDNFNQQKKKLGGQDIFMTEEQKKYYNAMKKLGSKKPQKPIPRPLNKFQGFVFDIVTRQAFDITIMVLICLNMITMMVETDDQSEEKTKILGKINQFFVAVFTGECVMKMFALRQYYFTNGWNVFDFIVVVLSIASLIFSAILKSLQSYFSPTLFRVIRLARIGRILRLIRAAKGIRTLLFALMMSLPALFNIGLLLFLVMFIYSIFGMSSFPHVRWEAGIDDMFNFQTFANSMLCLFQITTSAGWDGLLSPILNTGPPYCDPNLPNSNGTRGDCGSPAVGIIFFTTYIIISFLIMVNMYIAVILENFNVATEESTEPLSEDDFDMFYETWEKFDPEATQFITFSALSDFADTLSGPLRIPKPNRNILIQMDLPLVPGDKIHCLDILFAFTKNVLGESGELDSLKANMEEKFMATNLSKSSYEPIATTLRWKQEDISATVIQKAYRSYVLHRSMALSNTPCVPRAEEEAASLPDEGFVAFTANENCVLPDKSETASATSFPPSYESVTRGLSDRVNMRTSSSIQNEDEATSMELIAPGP

Compound: Cc1ccc(-c2cc(C(F)(F)F)nn2-c2ccc(S(N)(=O)=O)cc2)cc1 [Celecoxib, reference compound]
PWT 50% value (g) Post-surgery, Preadministration ([1]; 80 mg/kg group, baseline before administration): 3.12 ± 1.14 g | PWT 50% value (g) Pre-surgery ([1]; 80 mg/kg group, baseline before modeling): 11.74 ± 2.33 g | PWT 50% value (g) Time 0.5 h ([1]; 80 mg/kg, 0.5 h after administration): 5.91 ± 4.09 g | PWT 50% value (g) Time 2 h ([1]; 80 mg/kg, 2 h after administration): 4.66 ± 1.69 g | PWT 50% value (g) Time 8 h ([1]; 80 mg/kg, 8 h after administration): 3.4 ± 1.38 g | PWT 50% value (g) AUC0-8h ([1]; 80 mg/kg): 40.7 ± 15.63 g

Compound: COc1c([C@H]2[C@H](C(=O)Nc3ccnc(C(N)=O)c3)O[C@@](C)(C(F)(F)F)[C@H]2C)ccc(F)c1F [VX-548, reference compound]
PWT 50% value (g) Post-surgery, Preadministration (incision pain model [2]; 125 mg/kg group, baseline before administration): 3.95 ± 1.19 g | PWT 50% value (g) Pre-surgery (incision pain model [2]; 125 mg/kg group, baseline before surgery): 14.09 ± 1.46 g | PWT 50% value (g) Time 0.5 h (incision pain model [2]; 125 mg/kg single dose, 0.5 h after administration): 7.61 ± 5.9 g | PWT 50% value (g) Time 2 h (incision pain model [2]; 125 mg/kg single dose, 2 h after administration): 8.97 ± 3.33 g | PWT 50% value (g) Time 6 h (incision pain model [2]; 125 mg/kg single dose, 6 h after administration): 6.27 ± 2.34 g | PWT 50% value (g) Time 8 h (incision pain model [2]; 125 mg/kg single dose, 8 h after administration): 5.89 ± 2.07 g | PWT 50% value (g) AUC0-8h (incision pain model [2]; 125 mg/kg single dose): 58.66 ± 10.33 g | Number of pain responses 0 min (formalin pain model; 0 min): 24.3±8.5 | Number of pain responses 10 min (formalin pain model; 10 min): 2.4±2.8 | Number of pain responses 15 min (formalin pain model; 15 min): 8.8±6.4 | Number of pain responses 30 min (formalin pain model; 30 min): 13.2±6.3 | Number of pain responses 40 min (formalin pain model; 40 min): 10.1±6.9 | Number of pain responses 50 min (formalin pain model; 50 min): 4.1±4.7 | Number of pain responses 60 min (formalin pain model; 60 min): 4.7±5.6 | Number of writhing responses ([3]; 60 min before 0.8% acetic acid i.p., 30 min observation, Mean + SD, n = 10): 29±16 | Inhibition rate (%) ([3]; inhibition of writhing responses vs control group): 41.24%

Compound: CO/N=C(\N)c1cc(NC(=O)[C@@H]2S[C@@](C)(C(F)(F)F)C[C@H]2c2ccc(F)c(F)c2OC)ccn1 [a-57-A]
IC50 (Nav1.8 channels): 0.023 nM | PWT 50% value (g) Post-surgery, Preadministration (incision pain model [4]): 0.22 ± 0.02 g | PWT 50% value (g) Pre-surgery (incision pain model [4]): 1.29 ± 0.22 g | PWT 50% value (g) 0.5 h (incision pain model [4]): 0.43 ± 0.18 g | PWT 50% value (g) 2 h (incision pain model [4]): 0.38 ± 0.14 g | PWT 50% value (g) 4 h (incision pain model [4]): 0.29 ± 0.11 g | PWT 50% value (g) AUC0-8h (incision pain model [5]): 4.4 ± 0.41 g·h

The next lines start with results.

IC50 (Nav1.8 channels): 0.34 nM
Compound: COc1c([C@@H]2C[C@](C)(C(F)(F)F)S[C@H]2C(=O)Nc2ccc(NS(N)(=O)=O)c(F)c2)ccc(F)c1F [a-19-A, (2R,3S,5R)-3-(3,4-difluoro-2-methoxyphenyl)-N-[3-fluoro-4-(sulfamoylamino)phenyl]-5-methyl-5-(trifluoromethyl)thiolane-2-carboxamide]
PWT 50% value (g) Post-surgery, Preadministration (incision pain model [4]): 0.29 ± 0.13 g | PWT 50% value (g) Pre-surgery (incision pain model [4]): 1.33 ± 0.46 g | PWT 50% value (g) 0.5 h (incision pain model [4]): 0.47 ± 0.22 g | PWT 50% value (g) 2 h (incision pain model [4]): 0.51 ± 0.29 g | PWT 50% value (g) 4 h (incision pain model [4]): 0.44 ± 0.18 g | PWT 50% value (g) AUC0-8h (incision pain model [5]): 3.04 ± 0.83 g·h

IC50 (Nav1.8 channels): 0.04 nM
Compound: COc1c([C@@H]2C[C@](C)(C(F)(F)F)S[C@H]2C(=O)Nc2ccnc(NC#N)c2)ccc(F)c1F [a-34-A, (2R,3S,5R)-N-(2-cyanoaminopyridin-4-yl)-3-(3,4-difluoro-2-methoxyphenyl)-5-methyl-5-(trifluoromethyl)tetrahydrothiophene-2-carboxamide]
PWT 50% value (g) Post-surgery, Preadministration (incision pain model [4]): 0.24 ± 0.03 g | PWT 50% value (g) Pre-surgery (incision pain model [4]): 1.41 ± 0.33 g | PWT 50% value (g) 0.5 h (incision pain model [4]): 0.32 ± 0.15 g | PWT 50% value (g) 2 h (incision pain model [4]): 0.51 ± 0.15 g | PWT 50% value (g) 4 h (incision pain model [4]): 0.35 ± 0.16 g | PWT 50% value (g) AUC0-8h (incision pain model [5]): 2.81 ± 0.57 g·h
